Experimental data published in patent US5834493A, “Indole derivatives as 5-HT1A and/or 5-HT2 ligands” (priority 1993, dated 1998).

What was measured:
[1] = molecular target: T1, 5-HT1A receptors (Rattus norvegicus, UniProt P19327); experiment: 5-HT1A receptor binding ([3H]-8-OH-DPAT displacement, rat hippocampus homogenate); set-up: species or system rat (male Sprague Dawley); settings: [3H]-8-OH-DPAT 1.0-1.5 nM, 30° C., 15 min, pH 7.4, read-out: Affinity for 5-HT1A receptors, Ki
T1 construct: The Hippocampi of these animals were homogeneized in 10 volumes of ice cold TRIS buffer; from tissue; host or cells: rat hippocampus (male Sprague Dawley), homogenate
T1 sequence (P19327 1-422): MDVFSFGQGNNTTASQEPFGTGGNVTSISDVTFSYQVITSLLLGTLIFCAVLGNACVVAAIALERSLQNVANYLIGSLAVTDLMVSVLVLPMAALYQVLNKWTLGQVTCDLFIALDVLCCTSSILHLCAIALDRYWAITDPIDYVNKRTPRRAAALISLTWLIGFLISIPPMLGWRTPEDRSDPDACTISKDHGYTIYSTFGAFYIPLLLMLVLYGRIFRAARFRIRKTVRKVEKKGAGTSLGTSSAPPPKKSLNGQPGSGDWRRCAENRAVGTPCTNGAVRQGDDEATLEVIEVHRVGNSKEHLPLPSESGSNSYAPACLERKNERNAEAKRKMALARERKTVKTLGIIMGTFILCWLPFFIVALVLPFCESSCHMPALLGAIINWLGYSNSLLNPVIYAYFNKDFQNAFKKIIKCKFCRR
Experimental: (§1) Receptor binding studies on 5-HT1A and 5-HT2 receptors were carried out to determine the affinity of the test compounds.
Rats (male Sprague Dawley, 200-250 g) were used. The Hippocampi of these animals were homogeneized in 10 volumes of ice cold TRIS buffer (pH 7.4). The homogenate was diluted 1:400 (w:v) in the same buffer to have a final protein concentration of about 200 μg/mL, filtered and incubated at 37° C. for 10 min, before use.
Displacement experiments were performed by incubating the homogenate (980 μL) in the presence of [^3 H]-8OH-DPAT (1.0-1.5 nM) (10 μL) and of different concentrations of the test compounds dissolved in the test buffer (10 μL), at 30° C. for 15 min (final volume: 1 mL).
Non specific binding was determined in the presence of 100 μM 5-HT (10 μL). The separation of [3H]-8-OH-DPAT, free from that bound to the receptor, was carried out by the filtration technique (GF/B filters, Whatman). The radioactivity present was counted by liquid scintillation spectrometry.
(§2) The affinity values (Ki) for the compounds were obtained by a non linear least squares regression analysis on the basis of a one binding site model. The values were corrected on the basis of the radioligand occupancy on the receptors according to the equation: Ki=IC50 /(1+[C]/KD),where [C] and KD represent the concentration and the dissociation constant, respectively, of the radioligand used ([^3 H]-8-OH-DPAT).

[2] = molecular target: T2, 5-HT2 receptors (Rattus norvegicus, UniProt P14842); experiment: 5-HT2 receptor binding ([3H]-Ketanserine displacement, rat cerebral cortex); set-up: species or system rat (male Sprague Dawley); settings: [3H]-Ketanserine 0.5-1.0 nM, 37° C., 10 min, pH 7.4, read-out: Affinity for 5-HT2 receptors, Ki
T2 construct: Cerebral cortices were homogenized in 10 volumes of ice cold 0.32M sucrose; from tissue; host or cells: rat cerebral cortex (male Sprague Dawley), membrane preparation
T2 sequence (P14842 whole entry): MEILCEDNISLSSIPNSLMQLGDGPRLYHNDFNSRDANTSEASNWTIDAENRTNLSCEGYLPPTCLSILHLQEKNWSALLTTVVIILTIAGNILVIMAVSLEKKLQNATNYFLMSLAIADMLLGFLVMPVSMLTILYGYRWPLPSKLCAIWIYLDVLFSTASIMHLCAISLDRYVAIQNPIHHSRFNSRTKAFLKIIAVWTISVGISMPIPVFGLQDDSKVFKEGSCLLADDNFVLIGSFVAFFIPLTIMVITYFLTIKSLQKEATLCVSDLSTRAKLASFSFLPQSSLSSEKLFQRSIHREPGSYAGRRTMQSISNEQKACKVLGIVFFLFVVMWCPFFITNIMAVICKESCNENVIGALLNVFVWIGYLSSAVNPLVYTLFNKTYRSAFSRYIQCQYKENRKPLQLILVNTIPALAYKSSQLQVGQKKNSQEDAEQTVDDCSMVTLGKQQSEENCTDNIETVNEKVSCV
Experimental: as §1
Rats (male Sprague Dawley, 200-250 g) were used. Cerebral cortices were homogenized in 10 volumes of ice cold 0.32M sucrose. After the centrifugation of the homogenate (1,000×g for 10 min) the supernatant was then recentrifuged at 48,000×g for 15 min. The resulting pellet was resuspended in 10 volumes of 50 mM TRIS buffer (pH 7.4), incubated at 37° C. for 10 min and recentrifuged at 48,000×g for 15 min. The residue was then resuspended in 10 volumes of 50 mM TRIS buffer (pH 7.4).
The tissue was diluted 1:100 (w:v) in 50 mM TRIS buffer (pH 7.4) to have a final protein concentration of about 200 μg/mL.
Displacement experiments were performed by incubating the homogenate (980 μL) in the presence of [^3 H]-Ketanserine (0.5-1.0 nM) (10 μL) and of different concentrations of the test compounds dissolved in the assay buffer (10 μL), at 37° C. for 10 min (final volume: 1 mL).
Non specific binding was determined in the presence of 100 μM Methysergide (10 μL). The separation of [^3 ]-Ketanserine free from that bound to the receptor was carried by the filtration technique (GF/B filters, Whatman). The radioactivity present was counted by liquid scintillation spectrometry.
as §2, with “by” for “by a”, “model. These” for “model. The”, “Ki=IC50 /(1+[C]/KD), where” for “Ki=IC50 /(1+[C]/KD),where”, “([^3 H]-Ketanserine).” for “([^3 H]-8-OH-DPAT).”

Row | SMILES | Ki [1] | Ki [2]
1 | COc1ccc2[nH]cc(CC3=CCCN(CCNC(=O)c4ccc(F)cc4)C3)c2c1 [Compound 16] | 1 nM | 
2 | COc1ccc2[nH]cc(CC3=CCCN(CCCC(=O)c4cccs4)C3)c2c1 [Compound 32, 5-methoxy-3-[N-(4-(2-thienyl)-4-oxo-butyl)-1,2,5,6-tetrahydro-pyridin-3-ylmethyl]-1H-indole] | 30 nM | 10 nM
3 | COc1ccc2[nH]cc(CC3=CCCN(CCC(=O)c4ccc(F)cc4)C3)c2c1 [Compound 11, 5-methoxy-3-[N-(3-(4-fluoro-phenyl)-3-oxo-propyl)-1,2,5,6-tetrahydro-pyridin-3-ylmethyl]-1H-indole] | 30 nM | 20 nM
4 | COc1ccc2[nH]cc(CC3=CCCN(CCc4ccc(N)cc4)C3)c2c1 [Compound 13, 5-methoxy-3-[N-(2-(4-amino-phenyl)-ethyl)-1,2,5,6-tetrahydro-pyridin-3-ylmethyl]-1H-indole] | 100 nM | 50 nM
5 | COc1ccc2[nH]cc(CC3=CCCN(CCCc4ccc(F)cc4)C3)c2c1 [Compound 15, 5-methoxy-3-[N-(3-(4-fluoro-phenyl)-propyl)-1,2,5,6-tetrahydro-pyridin-3-ylmethyl]-1H-indole] | 10 nM | 10 nM
6 | COc1ccc2[nH]cc(CC3=CCCN(CCCC(=O)c4ccc(F)cc4)C3)c2c1 [Compound 9, 5-methoxy-3-[N-(4-(4-fluoro-phenyl)-4-oxo-butyl)-1,2,5,6-tetrahydro-pyridin-3-ylmethyl]-1H-indole] | 30 nM | 15 nM
7 | COc1ccc2[nH]cc(CC3=CCCN(CCCCc4ccc(F)cc4)C3)c2c1 [Compound 14, 5-methoxy-3-[N-(4-(4-fluoro-phenyl)-butyl)-1,2,5,6-tetrahydro-pyridin-3-ylmethyl]-1H-indole] | 80 nM | 100 nM
8 | COc1ccc2[nH]cc(CC3=CCCN(CCNC(=O)c4cccs4)C3)c2c1 [Compound 17, 5-methoxy-3-[N-(2-(2-thiophene-carboxamide)-ethyl)-1,2,5,6-tetrahydro-pyridin-3-ylmethyl]-1H-indole] | 1 nM | 
9 | COc1ccc2[nH]cc(CC3=CCCN(C)C3)c2c1 [Compound 1, 5-methoxy-3-(N-methyl-1,2,5,6-tetrahydro-pyridin-3-yl-methyl)-1H-indole] | 35 nM | 
10 | COc1ccc2[nH]cc(CC3=CCCN(CCOc4ccc(F)cc4)C3)c2c1 [Compound 2, 5-methoxy-3-[N-(4'-fluoro-phenoxy-ethyl)-1,2,5,6-tetrahydro-pyridin-3-yl-methyl]-1H-indole] | 10 nM | 50 nM
